Experimental data: PubChem BioAssay AID256 (DTP/NCI, 2004)
Where “and” joins values, the source holds several entries; their conditions need not be identical. Identical values can stand only once. Toxic doses and inconclusive results are not listed.

System: CD2F1 mice, L1210 leukemia ip, survival T/C
Test: NCI In Vivo Anticancer Drug Screen. Data for tumor model L1210 Leukemia (intraperitoneal) in CD2F1 (CDF1) mice
Settings: higher = longer survival
In short: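 Transplantable tumor in mice; compound-treated vs vehicle-treated groups. Read-out = treated/control ratio of the measured endpoint.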

[1] = endpoint: mean survival time, dose: 12.5 mg/kg/injection, schedule: Q01DX009 (ip), vehicle: saline with Tween-80
[2] = endpoint: mean survival time, dose: 25.0 mg/kg/injection, schedule: Q01DX009 (ip), vehicle: saline with Tween-80
[3] = endpoint: mean survival time, dose: 50.0 mg/kg/injection, schedule: Q01DX009 (ip), vehicle: saline with Tween-80
[4] = endpoint: mean survival time, dose: 100.0 mg/kg/injection, schedule: Q01DX009 (ip), vehicle: saline with Tween-80
[5] = endpoint: mean survival time, dose: 200.0 mg/kg/injection, schedule: Q01DX009 (ip), vehicle: saline with Tween-80

CN(C)N=Nc1c(Cl)cccc1Cl
T/C (endpoint: mean survival time, dose: 9.38 mg/kg/injection, schedule: Q01DX009 (ip), vehicle: Klucel (hydroxypropylcellulose) (HPC)): 101 % of control
T/C (endpoint: mean survival time, dose: 18.75 mg/kg/injection, schedule: Q01DX009 (ip), vehicle: Klucel (hydroxypropylcellulose) (HPC)): 95 % of control and 103 % of control
T/C (endpoint: mean survival time, dose: 37.5 mg/kg/injection, schedule: Q01DX009 (ip), vehicle: Klucel (hydroxypropylcellulose) (HPC)): 97 % of control and 110 % of control
T/C (endpoint: mean survival time, dose: 300.0 mg/kg/injection, schedule: Q01DX009 (ip), vehicle: Klucel (hydroxypropylcellulose) (HPC)): 89 % of control

C[S+](C)CC(=O)c1ccccc1
T/C (endpoint: mean survival time, dose: 50.0 mg/kg/injection, schedule: Q01DX009 (ip), vehicle: saline): 97 % of control
T/C (endpoint: mean survival time, dose: 100.0 mg/kg/injection, schedule: Q01DX009 (ip), vehicle: saline): 106 % of control
T/C (endpoint: mean survival time, dose: 200.0 mg/kg/injection, schedule: Q01DX009 (ip), vehicle: saline): 107 % of control

BrCC[Se]c1ccccc1
T/C (endpoint: mean survival time, dose: 3.12 mg/kg/injection, schedule: Q01DX009 (ip), vehicle: saline with Tween-80): 105 % of control
T/C (endpoint: mean survival time, dose: 6.25 mg/kg/injection, schedule: Q01DX009 (ip), vehicle: saline with Tween-80): 111 % of control
T/C [1]: 102 % of control
T/C [2]: 115 % of control
T/C [3]: 107 % of control
T/C [4]: 104 % of control

O=C1CNC(=O)N1c1cccc(Cl)c1
T/C [4]: 96 % of control
T/C [5]: 92 % of control

CC1(C)C(=O)C(C)(C)C1=NNc1ccc([N+](=O)[O-])cc1[N+](=O)[O-]
T/C (endpoint: median survival time, dose: 50.0 mg/kg/injection, schedule: Q04DX002 (ip), vehicle: saline with Tween-80): 90 % of control
T/C (endpoint: median survival time, dose: 100.0 mg/kg/injection, schedule: Q04DX002 (ip), vehicle: saline with Tween-80): 100 % of control
T/C (endpoint: median survival time, dose: 200.0 mg/kg/injection, schedule: Q04DX002 (ip), vehicle: saline with Tween-80): 90 % of control
T/C (endpoint: median survival time, dose: 400.0 mg/kg/injection, schedule: Q04DX002 (ip), vehicle: saline with Tween-80): 100 % of control

COC(=O)C1C=CCC=C1OC (centres undefined)
T/C [4]: 113 % of control
T/C [5]: 104 % of control
T/C (endpoint: mean survival time, dose: 400.0 mg/kg/injection, schedule: Q01DX009 (ip), vehicle: saline with Tween-80): 109 % of control

Cc1cn(C2CC(O)C(CO)O2)c(=O)nc1NC1CC1 (centres undefined)
T/C (endpoint: median survival time, dose: 12.5 mg/kg/injection, schedule: Q01DX005 (ip), vehicle: water): 102 % of control
T/C (endpoint: median survival time, dose: 25.0 mg/kg/injection, schedule: Q01DX005 (ip), vehicle: water): 102 % of control
T/C (endpoint: median survival time, dose: 50.0 mg/kg/injection, schedule: Q01DX005 (ip), vehicle: water): 104 % of control
T/C (endpoint: median survival time, dose: 100.0 mg/kg/injection, schedule: Q01DX005 (ip), vehicle: water): 103 % of control
T/C (endpoint: median survival time, dose: 200.0 mg/kg/injection, schedule: Q01DX005 (ip), vehicle: water): 102 % of control

CCCCCC(C)C1=NC(C)(C)CC(C)O1 (centres undefined)
T/C (endpoint: mean survival time, dose: 5.0 mg/kg/injection, schedule: Q01DX009 (ip), vehicle: saline): 94 % of control
T/C (endpoint: mean survival time, dose: 10.0 mg/kg/injection, schedule: Q01DX009 (ip), vehicle: saline): 95 % of control
T/C (endpoint: mean survival time, dose: 20.0 mg/kg/injection, schedule: Q01DX009 (ip), vehicle: saline): 97 % of control
T/C (endpoint: mean survival time, dose: 100.0 mg/kg/injection, schedule: Q01DX001 (ip), vehicle: saline with Tween-80): 97 % of control
T/C (endpoint: mean survival time, dose: 200.0 mg/kg/injection, schedule: Q01DX001 (ip), vehicle: saline with Tween-80): 93 % of control

CC(C)[S-].CC(C)[S-].[Pt+2].c1ccc([PH+](c2ccccc2)c2ccccc2)cc1.c1ccc([PH+](c2ccccc2)c2ccccc2)cc1
T/C (endpoint: mean survival time, dose: 3.13 mg/kg/injection, schedule: Q04DX003 (sc), vehicle: distilled water + Tween-80): 96 % of control
T/C (endpoint: mean survival time, dose: 6.25 mg/kg/injection, schedule: Q04DX003 (sc), vehicle: distilled water + Tween-80): 100 % of control
T/C (endpoint: mean survival time, dose: 12.5 mg/kg/injection, schedule: Q04DX003 (sc), vehicle: distilled water + Tween-80): 92 % of control
T/C (endpoint: mean survival time, dose: 50.0 mg/kg/injection, schedule: Q04DX003 (sc), vehicle: distilled water + Tween-80): 87 % of control
T/C (endpoint: mean survival time, dose: 200.0 mg/kg/injection, schedule: Q04DX003 (sc), vehicle: distilled water + Tween-80): 89 % of control

NC(=O)N/N=C1/CC2CC1C1C=CCC21 (centres undefined)
T/C (endpoint: mean survival time, dose: 100.0 mg/kg/injection, schedule: Q04DX002 (ip), vehicle: saline with Tween-80): 102 % of control
T/C (endpoint: mean survival time, dose: 200.0 mg/kg/injection, schedule: Q04DX002 (ip), vehicle: saline with Tween-80): 107 % of control
T/C (endpoint: mean survival time, dose: 400.0 mg/kg/injection, schedule: Q04DX002 (ip), vehicle: saline with Tween-80): 98 % of control

C=CCOCC(O)C[As](=O)(O)c1ccc(OC)cc1 (centres undefined)
T/C (endpoint: mean survival time, dose: 6.25 mg/kg/injection, schedule: Q04DX003 (ip), vehicle: saline with Tween-80): 92 % of control
T/C (endpoint: mean survival time, dose: 12.5 mg/kg/injection, schedule: Q04DX003 (ip), vehicle: saline with Tween-80): 101 % of control
T/C (endpoint: mean survival time, dose: 25.0 mg/kg/injection, schedule: Q04DX003 (ip), vehicle: saline with Tween-80): 98 % of control

CN(Cc1ccc2nc(N)[nH]c(=O)c2n1)c1ccc(C(=O)NC(CCC(=O)O)C(=O)O)cc1 (centres undefined)
T/C (endpoint: mean survival time, dose: 0.5 mg/kg/injection, schedule: Q01DX005 (ip), vehicle: sodium bicarbonate): 98 % of control and 101 % of control
T/C (endpoint: mean survival time, dose: 1.0 mg/kg/injection, schedule: Q01DX005 (ip), vehicle: sodium bicarbonate): 101 % of control and 104 % of control
T/C (endpoint: mean survival time, dose: 2.0 mg/kg/injection, schedule: Q01DX005 (ip), vehicle: sodium bicarbonate): 101 % of control and 102 % of control
T/C (endpoint: mean survival time, dose: 4.0 mg/kg/injection, schedule: Q01DX005 (ip), vehicle: sodium bicarbonate): 98 % of control and 102 % of control
T/C (endpoint: mean survival time, dose: 8.0 mg/kg/injection, schedule: Q01DX005 (ip), vehicle: sodium bicarbonate): 104 % of control and 107 % of control
T/C (endpoint: mean survival time, dose: 16.0 mg/kg/injection, schedule: Q01DX005 (ip), vehicle: sodium bicarbonate): 102 % of control and 107 % of control

CN1CCCN(C)C1c1ccccc1O
T/C [1]: 105 % of control
T/C [2]: 102 % of control
T/C [3]: 107 % of control

Nc1cc2c(c[n+](CCO)c3ccccc23)c2ccccc12
T/C (endpoint: mean survival time, dose: 12.5 mg/kg/injection, schedule: Q04DX003 (ip), vehicle: water): 103 % of control
T/C (endpoint: mean survival time, dose: 25.0 mg/kg/injection, schedule: Q04DX003 (ip), vehicle: water): 104 % of control
T/C (endpoint: mean survival time, dose: 50.0 mg/kg/injection, schedule: Q04DX003 (ip), vehicle: water): 110 % of control
T/C (endpoint: mean survival time, dose: 100.0 mg/kg/injection, schedule: Q04DX003 (ip), vehicle: water): 120 % of control
T/C (endpoint: mean survival time, dose: 200.0 mg/kg/injection, schedule: Q04DX003 (ip), vehicle: water): 120 % of control

COc1cccc2c1C(=O)c1c(O)c3c(c(O)c1C2=O)CC(O)(C(=O)CO)CC3OC1CC(N)C(O)C(C)O1 (centres undefined)
T/C (endpoint: mean survival time, dose: 0.31 mg/kg/injection, schedule: Q04DX003 (ip), vehicle: saline): 120 % of control
T/C (endpoint: mean survival time, dose: 0.62 mg/kg/injection, schedule: Q04DX003 (ip), vehicle: saline): 120 % of control
T/C (endpoint: mean survival time, dose: 3.13 mg/kg/injection, schedule: Q01DX009 (ip), vehicle: water): 117 % of control
T/C (endpoint: mean survival time, dose: 6.25 mg/kg/injection, schedule: Q01DX009 (ip), vehicle: water): 123 % of control
T/C (endpoint: mean survival time, dose: 12.5 mg/kg/injection, schedule: Q01DX009 (ip), vehicle: water): 202 % of control
T/C (endpoint: mean survival time, dose: 20.0 mg/kg/injection, schedule: Q04DX003 (ip), vehicle: saline): 152 % of control and 155 % of control
T/C (endpoint: mean survival time, dose: 25.0 mg/kg/injection, schedule: Q01DX009 (ip), vehicle: water): 151 % of control
T/C (endpoint: mean survival time, dose: 36.0 mg/kg/injection, schedule: Q01DX009 (ip), vehicle: water): 150 % of control
T/C (endpoint: mean survival time, dose: 40.0 mg/kg/injection, schedule: Q04DX003 (ip), vehicle: saline): 113 % of control
T/C (endpoint: mean survival time, dose: 80.0 mg/kg/injection, schedule: Q04DX003 (ip), vehicle: saline): 89 % of control

CC(C)c1cc2c(cc1O)C1(C)CCCC(C)(C#N)C1CC2 (centres undefined)
T/C (endpoint: mean survival time, dose: 100.0 mg/kg/injection, schedule: Q01DX009 (ip), vehicle: saline sonified): 95 % of control
T/C (endpoint: mean survival time, dose: 200.0 mg/kg/injection, schedule: Q01DX009 (ip), vehicle: saline sonified): 89 % of control
T/C (endpoint: mean survival time, dose: 400.0 mg/kg/injection, schedule: Q01DX009 (ip), vehicle: saline sonified): 91 % of control

Cn1ncc2c1NC(c1ccc(F)cc1)SCC2=O (centres undefined)
T/C (endpoint: mean survival time, dose: 25.0 mg/kg/injection, schedule: Q01DX009 (ip), vehicle: gum acacia): 95 % of control and 96 % of control
T/C (endpoint: mean survival time, dose: 50.0 mg/kg/injection, schedule: Q01DX009 (ip), vehicle: gum acacia): 97 % of control and 101 % of control
T/C (endpoint: mean survival time, dose: 100.0 mg/kg/injection, schedule: Q01DX009 (ip), vehicle: gum acacia): 92 % of control and 95 % of control and 103 % of control
T/C (endpoint: mean survival time, dose: 200.0 mg/kg/injection, schedule: Q01DX009 (ip), vehicle: gum acacia): 96 % of control and 104 % of control
T/C (endpoint: mean survival time, dose: 400.0 mg/kg/injection, schedule: Q01DX009 (ip), vehicle: gum acacia): 100 % of control

COc1cc2c(c(OC)c1OC)-c1cc3c(cc1[C@@H](OC(C)=O)[C@@H]1COC(=O)[C@H]1C2)OCO3
T/C (endpoint: mean survival time, dose: 1.25 mg/kg/injection, schedule: Q01DX009 (ip), vehicle: Klucel (hydroxypropylcellulose) (HPC)): 95 % of control
T/C (endpoint: mean survival time, dose: 2.5 mg/kg/injection, schedule: Q01DX009 (ip), vehicle: Klucel (hydroxypropylcellulose) (HPC)): 103 % of control
T/C (endpoint: mean survival time, dose: 5.0 mg/kg/injection, schedule: Q01DX009 (ip), vehicle: Klucel (hydroxypropylcellulose) (HPC)): 97 % of control
T/C (endpoint: mean survival time, dose: 10.0 mg/kg/injection, schedule: Q01DX009 (ip), vehicle: Klucel (hydroxypropylcellulose) (HPC)): 112 % of control
